The source of these data is patent publication US11566007B2, “Ras inhibitors” (Revolution Medicines, Inc., priority 2019, dated 2023).

A value given as a limit tells only on which side of the number the result lay.

The target in assay [1] is K-Ras G12C (Homo sapiens (Human), UniProt P01116+P62937, G12C). The assay is described as follows: Ras-Raf (BRAF RBD) disruption / FRET / MOA assay, KRAS G12C. It is filed as biochemical. The conditions noted are these: KRAS G12C; Ras-Raf disruption/FRET/MOA assay; read-out: IC50* KRAS G12C FRET data. In a few lines:
(§1)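 Ras:RAF disruption was scored as a fall in TR-FRET ratio relative to DMSO. Compound ranged in 3-fold steps over 10 points from 30 μM final; incubation ran 3 h at 25° C, detection antibodies a further 1.5 h. Reported as IC50.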

Assay [2] deals with NRAS G12C (Homo sapiens (Human), UniProt P01111+P62937, G12C). In words: Ras-Raf (BRAF RBD) disruption / FRET / MOA assay, NRAS G12C. The conditions noted are these: read-out: IC50* NRAS G12C FRET data. It is filed as biochemical. A digest of the protocol:
as §1

For assay [3], the system named is NCI-H358 cells (K-Ras G12C). The assay is described as follows: Potency assay: pERK in NCI-H358 cells. Type of assay: cell-based, human. The conditions noted are these: Homo sapiens, NCI-H358; H358 KRAS G12C; read-out: pERK EC50. In a few lines: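 Compounds are dosed as ten 3-fold dilutions from a 10 mM DMSO stock, in duplicate, and left on cells for 4 h at 37 °C, 5% CO2. Phospho-ERK1/2 is then quantified by AlphaLISA SureFire Ultra or In-Cell Western, and IC50 is derived from a 4-parameter sigmoid against log concentration.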

The target of assay [4] is KRAS Q61H (Homo sapiens (Human), UniProt P01116+P62937, Q61H). The assay is described as follows: Ras-Raf (BRAF RBD) disruption / FRET / MOA assay, KRAS Q61H. Type of assay: biochemical. The conditions noted are these: Ras-Raf disruption/FRET/MOA assay; class symbols; read-out: KRAS Q61H FRET data IC50. In a few lines: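 TR-FRET disruption of nucleotide-loaded Ras binding to BRAF RBD via compound-driven ternary complex with cyclophilin A. Compound as 10-point 3-fold series from 30 μM final, 3 h at 25° C, then anti-His Eu-W1024 (10 nM) and anti-GST allophycocyanin (50 nM) for 1.5 h. IC50 from decreased FRET ratio versus DMSO.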
Chain of KRAS Q61H (P01116-2 other isoform, or with tags, fused parts or gaps Q61H): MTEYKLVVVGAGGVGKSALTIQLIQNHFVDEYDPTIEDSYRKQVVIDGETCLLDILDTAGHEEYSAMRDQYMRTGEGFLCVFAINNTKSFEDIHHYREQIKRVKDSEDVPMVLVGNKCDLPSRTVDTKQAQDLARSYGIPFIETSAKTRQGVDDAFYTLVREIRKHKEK
Chain of KRAS Q61H (P62937 whole entry): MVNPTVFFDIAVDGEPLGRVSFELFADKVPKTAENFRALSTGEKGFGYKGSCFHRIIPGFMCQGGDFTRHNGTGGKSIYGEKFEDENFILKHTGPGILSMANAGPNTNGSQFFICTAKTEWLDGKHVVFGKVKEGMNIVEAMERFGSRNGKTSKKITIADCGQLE

Chain of NRAS G12C (P01111 whole entry G12C): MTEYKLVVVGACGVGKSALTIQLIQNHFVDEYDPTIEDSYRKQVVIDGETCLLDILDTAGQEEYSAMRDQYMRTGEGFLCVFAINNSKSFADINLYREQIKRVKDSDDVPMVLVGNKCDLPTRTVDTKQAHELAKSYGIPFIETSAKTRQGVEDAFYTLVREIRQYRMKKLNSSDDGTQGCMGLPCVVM
Chain of NRAS G12C (P62937 whole entry): as the sequence (P62937 whole entry) above
Chain of K-Ras G12C (P01116-2 other isoform, or with tags, fused parts or gaps G12C): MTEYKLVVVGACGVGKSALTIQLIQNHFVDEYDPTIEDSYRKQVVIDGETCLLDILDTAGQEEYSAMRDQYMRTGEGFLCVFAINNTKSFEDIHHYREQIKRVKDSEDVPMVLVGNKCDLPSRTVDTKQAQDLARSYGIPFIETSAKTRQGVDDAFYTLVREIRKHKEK
Chain of K-Ras G12C (P62937 whole entry): as the sequence (P62937 whole entry) above

With `C=CC(=O)N1CC[C@H](C(=O)N(C)[C@H](C(=O)N[C@H]2Cc3cc(O)cc(c3)-c3ccc4c(c3)c(c(-c3cnc(N(C)C)s3)n4CC)CC(C)(C)COC(=O)[C@@H]3CCCN(N3)C2=O)C(C)C)C1` [Example A302], the results for the IC50 in assay [1], in assay [2] and in assay [4] were 100 to 1000 nM, 100 to 1000 nM and 1000 to 10000 nM, respectively. Moreover, in assay [3], the EC50 was below 5 µM.
Consider `C=CC(=O)N1CC[C@H](C(=O)N(C)[C@H](C(=O)N[C@H]2Cc3cc(O)cc(c3)-c3ccc4c(c3)c(c(-c3csc(N(C)C)n3)n4CC)CC(C)(C)COC(=O)[C@@H]3CCCN(N3)C2=O)C(C)C)C1` [Example A303], for which the IC50 in assay [1], in assay [2] and in assay [4] was 1000 to 10000 nM in each case. In assay [3], the EC50 is below 5 µM.
As to `C=CC(=O)N1CCOC2(CCN(C(=O)N(C)[C@H](C(=O)N[C@H]3C[C@H]4CN(CCO4)c4ccc5c(c4)c(c(-c4cccnc4[C@H](C)OC)n5CC)CC(C)(C)COC(=O)[C@@H]4CCCN(N4)C3=O)C(C)C)CC2)C1` [Example A564], the IC50 in assay [1], in assay [2] and in assay [4] was 100 to 1000 nM throughout. Moreover, the EC50 in assay [3] was below 5 µM.
Regarding `CCn1c(-c2cccnc2[C@H](C)OC)c2c3cc(ccc31)-c1cccc(c1)CC(NC(=O)[C@H](C(C)C)N1CC[C@]3(CCN(C(=O)C#C[C@@H]4COCCN4C4COC4)C3)C1=O)C(=O)N1CCC[C@H](N1)C(=O)OCC(C)(C)C2` (stereo partly shown) [Example A565], the figures for the IC50 in assay [1], in assay [2] and in assay [4] were 100 to 1000 nM, 100 to 1000 nM and 1000 to 10000 nM, respectively. Also, in assay [3], the EC50 was below 5 µM.
Turning to `C=CC(=O)N1CC[C@H](C(=O)N(C)[C@H](C(=O)N[C@H]2Cc3cccc(c3)-c3ccc4c(c3)c(c(-c3cccnc3[C@H](C)OC)n4CC)CC(C)(C)COC(=O)[C@@H]3CCCN(N3)C2=O)C(C)C(F)(F)F)C1` (stereo partly shown) [Example A641], the IC50 in assay [1] is 100 to 1000 nM; in assay [2], 100 to 1000 nM; in assay [4] it was 1000 to 10000 nM. For the same compound, the EC50 in assay [3] is below 5 µM.
On to `CCn1c(-c2cccnc2[C@H](C)OC)c2c3cc(ccc31)C1CCCN(C1)C[C@H](NC(=O)[C@@H](COC1CN(C(=O)C#CC(C)(C)N(C)C)C1)C(C)C)C(=O)N1CCC[C@H](N1)C(=O)OCC(C)(C)C2` [Example A646, (2R)-2-(((1-(4-(dimethylamino)-4-methylpent-2-ynoyl)azetidin-3-yl)oxy)methyl)-N-((6^3S,4S)-1^1-ethyl-1^2-(2-((S)-1-methoxyethyl)pyridin-3-yl)-10,10-dimethyl-5,7-dioxo-6^1,6^2,6^3,6^4,6^5,6^6-hexahydro-1^1H-8-oxa-1(5,3)-indola-6(1,3)-pyridazina-2(3,1)-piperidinacycloundecaphane-4-yl)-3-methylbutanamide], for which the IC50 was 10 to 100 nM in assay [1], 10 to 100 nM in assay [2] and above 10000 nM in assay [4]. The EC50 in assay [3] was below 5 µM.
`C=CC(=O)C1CC[C@H](C(=O)N(C)[C@H](C(=O)N[C@H]2Cc3nsc(n3)-c3ccc4c(c3)c(c(-c3cccnc3[C@H](C)OC)n4CC)CC(C)(C)COC(=O)[C@@H]3CCCN(N3)C2=O)C(C)C)C1` (stereo partly shown) [Example A694]: the IC50 in assay [1], in assay [2] and in assay [4] was 100 to 1000 nM each time. The EC50 in assay [3] is below 5 µM.

The term IC50 denotes the midpoint of a concentration-inhibition curve. Broadly, the EC50 is the concentration giving half of the maximal effect.
